Test results reported in ChEMBL document CHEMBL1150496, “Synthesis and biological activity of C-5 modified derivatives of (+)-AJ76 and (+)-UH232: Increased dopamine D3 receptor preference and improved pharmacokinetic properties” (Bioorg Med Chem Lett, 1994).
Calls of active or inactive are those of the source. The rule behind the calls is not given here.

What was measured:
Rattus norvegicus [1] = experiment: In vivo locomotor activity (LMA) in habituated rats at a dose of 100 umol/kg, sc, for 60 mins after 60 min habituation period; assay type: functional; set-up: unit not given here
Rattus norvegicus [2] = experiment: In vivo DOPAC level was measured in killed rat striatal brain regions at a dose of 100 umol/kg, sc; assay type: functional; set-up: unit not given here
Rattus norvegicus [3] = experiment: In vivo 5-HIAA level was measured in killed rat limbic brain regions at a dose of 100 umol/kg, sc; assay type: functional, Limbic system; set-up: unit not given here
[4] = molecular target: T1, 5-hydroxytryptamine receptor 1A (Rattus norvegicus, UniProt P19327); experiment: Binding affinity was measured at 5-HT1A receptor in rat striatal membranes using [3H]8-OH-DPAT; assay type: cell membranes, Striatum, Membrane
T1 sequence (P19327 whole entry): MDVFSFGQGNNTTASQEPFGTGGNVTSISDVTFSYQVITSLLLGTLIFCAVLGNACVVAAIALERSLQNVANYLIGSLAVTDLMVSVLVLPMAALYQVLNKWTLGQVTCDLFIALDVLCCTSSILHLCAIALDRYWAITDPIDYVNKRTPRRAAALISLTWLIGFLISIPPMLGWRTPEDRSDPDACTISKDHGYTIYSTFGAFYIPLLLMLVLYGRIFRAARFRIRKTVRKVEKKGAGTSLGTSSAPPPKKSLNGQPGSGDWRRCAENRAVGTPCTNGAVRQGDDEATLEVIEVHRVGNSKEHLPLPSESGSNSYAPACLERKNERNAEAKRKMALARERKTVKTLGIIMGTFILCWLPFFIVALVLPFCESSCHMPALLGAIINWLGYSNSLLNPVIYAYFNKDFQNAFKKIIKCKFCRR

Rattus norvegicus [5] = experiment: In vivo HVA level was measured in killed rat striatal brain regions at a dose of 100 umol/kg, sc; assay type: functional; set-up: unit not given here
Rattus norvegicus [6] = experiment: In vivo 5-HIAA level was measured in killed rat limbic brain regions at a dose of 12.5 umol/kg, sc; assay type: functional, Limbic system
[7] = In vivo percent of absolute bioavailability obtained from blood plasma levels analyzed by means of GC/MS (dose 5 uM/kg i.v. and 40 uM/kg, p.o.); assay type: ADME, organism-based; details: rat, po
Rattus norvegicus [8] = experiment: In vivo DOPAC level was measured in killed rat striatal brain regions at a dose of 12.5 umol/kg, sc; assay type: functional
Rattus norvegicus [9] = experiment: In vivo locomotor activity (LMA) in habituated rats at a dose of 50 umol/kg, sc, for 60 mins after 60 min habituation period; assay type: functional
Rattus norvegicus [10] = experiment: In vivo DOPAC level was measured in killed rat striatal brain regions at a dose of 50 umol/kg, sc; assay type: functional
Rattus norvegicus [11] = experiment: In vivo 5-HIAA level was measured in killed rat limbic brain regions at a dose of 50 umol/kg, sc; assay type: functional, Limbic system
Rattus norvegicus [12] = experiment: In vivo locomotor activity (LMA) in habituated rats at a dose of 12.5 umol/kg, sc, for 60 mins after 60 min habituation period; assay type: functional
D(2) dopamine receptor [13] = molecular target: T2, D(2) dopamine receptor (Homo sapiens, UniProt P14416); experiment: Binding affinity was measured at cloned mammalian dopamine D2 receptor expressed in CHO-K1 cells (using [3H]U-86170); assay type: cell-based
Rattus norvegicus [14] = experiment: In vivo HVA level was measured in killed rat striatal brain regions at a dose of 50 umol/kg, sc; assay type: functional
[15] = Half-life was estimated from the elimination phase of the oral [C] vs time curves in 4 rats; assay type: ADME, organism-based; details: rat, in vivo
Rattus norvegicus [16] = experiment: In vivo HVA level was measured in killed rat striatal brain regions at a dose of 12.5 umol/kg, sc; assay type: functional
D(4) dopamine receptor [17] = molecular target: T3, D(4) dopamine receptor (Homo sapiens, UniProt P21917); experiment: Binding affinity was measured at cloned mammalian dopamine D4 receptor expressed in CHO-K1 cells (using [3H]- spiperone); assay type: cell-based
T3 sequence (P21917 whole entry): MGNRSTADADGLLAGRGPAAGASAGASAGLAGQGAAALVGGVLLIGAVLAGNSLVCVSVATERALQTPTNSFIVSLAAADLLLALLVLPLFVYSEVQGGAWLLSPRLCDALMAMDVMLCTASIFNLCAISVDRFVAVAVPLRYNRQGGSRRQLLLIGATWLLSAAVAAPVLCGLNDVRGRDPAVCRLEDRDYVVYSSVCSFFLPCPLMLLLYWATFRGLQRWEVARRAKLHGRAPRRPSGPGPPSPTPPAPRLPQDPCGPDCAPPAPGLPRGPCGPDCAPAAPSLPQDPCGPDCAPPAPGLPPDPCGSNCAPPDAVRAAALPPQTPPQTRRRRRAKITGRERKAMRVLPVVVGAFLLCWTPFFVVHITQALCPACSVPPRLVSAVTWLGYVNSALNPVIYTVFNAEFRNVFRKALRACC

Rattus norvegicus [18] = experiment: In vivo HVA level was measured in killed rat striatal brain regions at a dose of 200 umol/kg, sc; assay type: functional
D(3) dopamine receptor [19] = molecular target: D(3) dopamine receptor (Homo sapiens, UniProt P35462); experiment: Binding affinity was measured at cloned mammalian dopamine D3 receptor expressed in CHO-K1 cells (using [3H]- spiperone); assay type: cell-based
[20] = molecular target: 5-hydroxytryptamine receptor 1A (Homo sapiens, UniProt P08908); experiment: (§1) Binding affinity was measured at cloned mammalian 5-HT1A receptor expressed in CHO-K1 cells (using [3H]8-OH-DPAT ); assay type: cell-based
Rattus norvegicus [21] = experiment: In vivo locomotor activity (LMA) in habituated rats at a dose of 200 umol/kg, sc, for 60 mins after 60 min habituation period; assay type: functional
Rattus norvegicus [22] = experiment: In vivo 5-HIAA level was measured in killed rat limbic brain regions at a dose of 200 umol/kg, sc; assay type: functional, Limbic system
Rattus norvegicus [23] = experiment: In vivo DOPAC level was measured in killed rat striatal brain regions at a dose of 200 umol/kg, sc; assay type: functional
D(3) dopamine receptor [24] = molecular target: D(3) dopamine receptor (Rattus norvegicus, UniProt P19020); experiment: Binding affinity was measured at cloned mammalian dopamine D3 receptor expressed in CHO-K1 cells (using [3H]- spiperone); NA means inactive; assay type: cell-based
Rattus norvegicus [25] = experiment: In vivo locomotor activity (LMA) in habituated rats at a dose of 25 umol/kg, sc, for 60 mins after 60 min habituation period; assay type: functional
[26] = molecular target: D(3) dopamine receptor (Rattus norvegicus) (UniProt P19020); experiment: Percent inhibition against dopamine D3 receptor at a concentration of 1 umol/L
D(4) dopamine receptor [27] = molecular target: T3, D(4) dopamine receptor; experiment: Binding affinity was measured at cloned mammalian dopamine D4 receptor expressed in CHO-K1 cells (using [3H]- spiperone); NA means inactive; assay type: cell-based
Rattus norvegicus [28] = experiment: In vivo HVA level was measured in killed rat striatal brain regions at a dose of 25 umol/kg, sc; assay type: functional
D(2) dopamine receptor [29] = molecular target: D(2) dopamine receptor (Rattus norvegicus, UniProt P61169); experiment: Binding affinity was measured from rat striatal membrane using [3H]-spiperone at D2 receptors
[30] = molecular target: T4, 5-hydroxytryptamine receptor 1A (Homo sapiens, UniProt P08908); experiment: as §1; assay type: cell-based; remark: listed apart in the source
T4 sequence (P08908 whole entry): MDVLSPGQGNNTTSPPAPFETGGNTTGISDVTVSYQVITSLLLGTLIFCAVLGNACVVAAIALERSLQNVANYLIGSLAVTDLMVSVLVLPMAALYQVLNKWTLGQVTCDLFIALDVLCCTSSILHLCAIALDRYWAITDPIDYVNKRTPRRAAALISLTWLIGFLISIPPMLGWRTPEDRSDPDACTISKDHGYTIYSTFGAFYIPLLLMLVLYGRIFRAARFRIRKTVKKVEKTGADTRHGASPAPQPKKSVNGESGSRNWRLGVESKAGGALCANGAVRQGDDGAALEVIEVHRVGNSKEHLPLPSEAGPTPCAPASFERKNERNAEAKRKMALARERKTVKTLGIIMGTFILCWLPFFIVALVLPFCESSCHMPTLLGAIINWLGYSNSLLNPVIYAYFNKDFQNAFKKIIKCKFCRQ

D(2) dopamine receptor [31] = molecular target: T2, D(2) dopamine receptor; experiment: Percent inhibition against dopamine D2 receptor at a concentration of 1 umol/L
D(2) dopamine receptor [32] = molecular target: T2, D(2) dopamine receptor; experiment: Binding affinity was measured at cloned mammalian dopamine D2 receptor expressed in CHO-K1 cells (using [3H]U-86,170); NA means Inactive; assay type: cell-based
Rattus norvegicus [33] = experiment: In vivo 5-HIAA level was measured in killed rat limbic brain regions at a dose of 25 umol/kg, sc; assay type: functional, Limbic system
Rattus norvegicus [34] = experiment: In vivo DOPAC level was measured in killed rat striatal brain regions at a dose of 25 umol/kg, sc; assay type: functional
[35] = molecular target: T5, D(4) dopamine receptor (Homo sapiens) (UniProt P21917); experiment: Percent inhibition against dopamine D4 receptor at a concentration of 1 umol/L
T5 sequence (whole entry): T3 sequence (P21917 whole entry)

Rattus norvegicus [36] = experiment: In vivo 5-HIAA level was measured in killed rat limbic brain regions at a dose of 100 umol/kg, oral; assay type: functional, Limbic system
Rattus norvegicus [37] = experiment: In vivo HVA level was measured in killed rat striatal brain regions at a dose of 100 umol/kg, oral.; assay type: functional
Rattus norvegicus [38] = experiment: In vivo locomotor activity (LMA) in habituated rats at a dose of 100 umol/kg, oral, for 60 mins after 60 min habituation period; assay type: functional
Rattus norvegicus [39] = experiment: In vivo DOPAC level was measured in killed rat striatal brain regions at a dose of 100 umol/kg, oral.; assay type: functional
Rattus norvegicus [40] = organism: Rattus norvegicus; experiment: In vitro stability relative to (+)-AJ76 in rat hepatocyte assay; In active; assay type: functional

T2 sequence (P14416 whole entry): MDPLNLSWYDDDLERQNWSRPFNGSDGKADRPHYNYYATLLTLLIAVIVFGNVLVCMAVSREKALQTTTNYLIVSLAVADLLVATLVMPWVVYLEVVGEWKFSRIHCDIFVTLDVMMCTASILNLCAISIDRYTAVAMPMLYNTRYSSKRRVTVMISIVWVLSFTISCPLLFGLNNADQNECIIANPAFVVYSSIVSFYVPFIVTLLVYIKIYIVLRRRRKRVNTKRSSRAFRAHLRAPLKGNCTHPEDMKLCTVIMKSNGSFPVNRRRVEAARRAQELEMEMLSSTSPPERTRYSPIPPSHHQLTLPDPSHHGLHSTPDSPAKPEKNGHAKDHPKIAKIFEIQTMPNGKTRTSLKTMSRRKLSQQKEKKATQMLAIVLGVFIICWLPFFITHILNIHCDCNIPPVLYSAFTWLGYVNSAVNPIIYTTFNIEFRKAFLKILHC
D(3) dopamine receptor (Homo sapiens, UniProt P35462), sequence (P35462 whole entry): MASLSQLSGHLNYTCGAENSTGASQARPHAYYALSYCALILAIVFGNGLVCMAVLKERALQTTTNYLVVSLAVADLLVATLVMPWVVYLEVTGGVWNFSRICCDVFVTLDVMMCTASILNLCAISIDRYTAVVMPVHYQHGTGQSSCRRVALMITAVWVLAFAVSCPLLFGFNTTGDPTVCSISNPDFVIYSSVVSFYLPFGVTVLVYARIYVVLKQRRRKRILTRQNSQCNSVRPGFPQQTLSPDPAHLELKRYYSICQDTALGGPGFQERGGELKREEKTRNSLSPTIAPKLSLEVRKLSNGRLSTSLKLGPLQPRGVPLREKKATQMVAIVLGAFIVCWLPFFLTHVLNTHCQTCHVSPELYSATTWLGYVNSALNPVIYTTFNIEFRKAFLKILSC
D(2) dopamine receptor (Rattus norvegicus, UniProt P61169), sequence (P61169 whole entry): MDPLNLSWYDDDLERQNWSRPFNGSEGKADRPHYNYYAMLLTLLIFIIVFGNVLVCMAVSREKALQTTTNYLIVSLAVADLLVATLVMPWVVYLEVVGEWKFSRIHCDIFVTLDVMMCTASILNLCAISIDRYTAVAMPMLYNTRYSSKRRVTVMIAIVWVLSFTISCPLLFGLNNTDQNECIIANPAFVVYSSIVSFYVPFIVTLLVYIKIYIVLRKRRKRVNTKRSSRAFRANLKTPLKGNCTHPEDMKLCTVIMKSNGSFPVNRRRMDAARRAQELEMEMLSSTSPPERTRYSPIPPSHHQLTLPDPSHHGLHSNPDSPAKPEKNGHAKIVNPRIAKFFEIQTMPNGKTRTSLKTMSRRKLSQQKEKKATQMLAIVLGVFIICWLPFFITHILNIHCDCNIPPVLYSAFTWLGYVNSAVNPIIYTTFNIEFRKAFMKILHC
D(3) dopamine receptor (Rattus norvegicus, UniProt P19020), sequence (P19020 whole entry): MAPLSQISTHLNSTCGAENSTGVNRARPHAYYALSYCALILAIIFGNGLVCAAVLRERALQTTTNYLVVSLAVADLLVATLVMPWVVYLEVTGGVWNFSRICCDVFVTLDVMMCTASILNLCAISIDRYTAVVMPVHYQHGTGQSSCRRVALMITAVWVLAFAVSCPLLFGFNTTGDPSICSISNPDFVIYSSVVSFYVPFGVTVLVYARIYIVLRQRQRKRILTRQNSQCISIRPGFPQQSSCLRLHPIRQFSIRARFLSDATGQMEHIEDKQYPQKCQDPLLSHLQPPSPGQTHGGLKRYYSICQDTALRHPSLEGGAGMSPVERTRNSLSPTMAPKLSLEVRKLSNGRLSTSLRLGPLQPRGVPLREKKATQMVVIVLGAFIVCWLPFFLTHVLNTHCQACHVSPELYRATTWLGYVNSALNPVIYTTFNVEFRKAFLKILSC
D(3) dopamine receptor (Rattus norvegicus), sequence (P19020 whole entry): as above

Structure (SMILES) | Activity (Rattus norvegicus [1]) | Activity (Rattus norvegicus [2]) | Activity (Rattus norvegicus [3]) | Activity (Rattus norvegicus [5]) | bioavailability [7] [%] | Ki (D(2) dopamine receptor [13]) [nM] | half-life [15] [h] | Ki (D(4) dopamine receptor [17]) [nM] | Activity (Rattus norvegicus [18]) | Ki (D(3) dopamine receptor [19]) [nM] | Ki [20] [nM] | Activity (Rattus norvegicus [21]) | Activity (Rattus norvegicus [22]) | Activity (Rattus norvegicus [23]) | also measured
CCCN[C@@H]1CCc2c(C(N)=O)cccc2[C@@H]1C | 215 | 109 | 97 | 105 |  |  |  |  |  |  |  |  |  |  | Ki [4]: 6720 nM
CCCN[C@@H]1CCc2c(OC)cccc2[C@@H]1C |  |  |  |  | 1.6 | 145 | 1 |  |  |  |  |  |  |  | Activity (Rattus norvegicus [6]): 121; Activity (Rattus norvegicus [8]): <220; Activity (Rattus norvegicus [9]): <354; Activity (Rattus norvegicus [10]): <346; Activity (Rattus norvegicus [11]): 127; Activity (Rattus norvegicus [12]): <272; Activity (Rattus norvegicus [14]): <402; Activity (Rattus norvegicus [16]): <251
CCCN[C@@H]1CCc2c(OS(=O)(=O)C(F)(F)F)cccc2[C@@H]1C |  |  |  |  | 62.2 | 2560 | 6 | 621 | <135 | 171 | 3070 | 167 | 92 | <130 | 
CCCN[C@@H]1CCc2c(C(=O)OC)cccc2[C@@H]1C |  |  |  |  |  | 2330 |  | 1590 | 120 | 253 | 287 | 102 | <75 | 117 | 
CCCN[C@@H]1CCc2c(C#N)cccc2[C@@H]1C | 149 | <224 | 100 | <248 |  |  |  |  |  |  |  |  |  |  | Ki (D(3) dopamine receptor [24]): Not Active; Activity (Rattus norvegicus [25]): 165; inhibition [26]: < 50%; Ki (D(4) dopamine receptor [27]): Not Active; Activity (Rattus norvegicus [28]): 136; Ki (D(2) dopamine receptor [29]): 16700 nM; Ki [30]: > 1790 nM; inhibition (D(2) dopamine receptor [31]): < 50%; Ki (D(2) dopamine receptor [32]): Not Active; Activity (Rattus norvegicus [33]): 102; Activity (Rattus norvegicus [34]): 121; inhibition [35]: < 50%
CCCN(CCC)[C@@H]1CCc2c(C#N)cccc2[C@@H]1C | <334 | <213 | 95 | <241 |  |  |  |  |  |  |  |  |  |  | Activity (Rattus norvegicus [25]): 125; Activity (Rattus norvegicus [36]): 82; Activity (Rattus norvegicus [37]): <166; Activity (Rattus norvegicus [38]): <287; Activity (Rattus norvegicus [28]): <134; Activity (Rattus norvegicus [39]): <128; Ki [4]: 5040 nM; Ki (D(2) dopamine receptor [29]): 6670 nM; Activity (Rattus norvegicus [33]): 93; Activity (Rattus norvegicus [34]): <127
CCCN(CCC)[C@@H]1CCc2c(C(N)=O)cccc2[C@@H]1C | 169 | 135 | 113 | 128 |  |  |  |  |  |  |  |  |  |  | 
CCCN(CCC)[C@@H]1CCc2c(OS(=O)(=O)C(F)(F)F)cccc2[C@@H]1C |  |  |  |  | 9.4 | 546 | 6 | 121 | <163 | 40 | > 3450 | <250 | 94 | <146 | 
CCCN(CCC)[C@@H]1CCc2c(OC)cccc2[C@@H]1C |  |  |  |  | 3.7 | 15 | 2.5 |  |  | 4.2 |  |  |  |  | Activity (Rattus norvegicus [6]): 119; Activity (Rattus norvegicus [8]): <176; Activity (Rattus norvegicus [40]): inactive; Activity (Rattus norvegicus [9]): <200; Activity (Rattus norvegicus [12]): <191; Activity (Rattus norvegicus [16]): <214
